Experimental findings from patent publication US7078499B2, “Nucleotide analogues comprising a reporter moiety and a polymerase enzyme blocking moiety” (GE Healthcare UK Limited, priority 2000, dated 2006) are described below.

Type in all cases: biochemical
One assay concerns the target T1, Bst DNA polymerase (Geobacillus stearothermophilus, UniProt P52026).
T1 construct: purchased Cambio Ltd
T1 sequence (P52026 1-876): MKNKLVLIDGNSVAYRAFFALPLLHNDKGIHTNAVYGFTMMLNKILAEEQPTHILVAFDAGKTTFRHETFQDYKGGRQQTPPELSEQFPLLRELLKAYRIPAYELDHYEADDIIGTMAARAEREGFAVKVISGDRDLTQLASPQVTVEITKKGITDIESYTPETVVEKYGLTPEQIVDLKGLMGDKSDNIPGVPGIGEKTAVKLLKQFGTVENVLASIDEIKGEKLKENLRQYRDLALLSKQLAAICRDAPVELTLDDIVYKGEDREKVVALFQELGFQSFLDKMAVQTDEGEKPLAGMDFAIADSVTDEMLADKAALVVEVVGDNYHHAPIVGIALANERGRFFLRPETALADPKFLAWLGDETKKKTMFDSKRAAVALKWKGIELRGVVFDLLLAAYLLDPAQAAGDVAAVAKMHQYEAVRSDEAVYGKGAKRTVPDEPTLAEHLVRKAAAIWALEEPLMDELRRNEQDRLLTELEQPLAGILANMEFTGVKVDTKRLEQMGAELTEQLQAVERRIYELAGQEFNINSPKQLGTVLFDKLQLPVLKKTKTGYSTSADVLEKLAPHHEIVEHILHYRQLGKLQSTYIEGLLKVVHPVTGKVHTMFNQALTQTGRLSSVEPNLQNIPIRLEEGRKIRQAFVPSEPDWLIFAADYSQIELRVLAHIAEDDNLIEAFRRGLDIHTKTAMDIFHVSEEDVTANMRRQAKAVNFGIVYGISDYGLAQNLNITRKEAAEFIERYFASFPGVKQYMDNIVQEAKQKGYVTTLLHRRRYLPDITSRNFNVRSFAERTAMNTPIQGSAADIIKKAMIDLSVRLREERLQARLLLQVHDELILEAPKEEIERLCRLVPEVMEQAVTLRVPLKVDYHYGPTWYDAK
Kind of assay: Mesophilic DNA polymerase primer extension, Bst. Further details: key to result of incorporation (termination / further chain extension): T: Incorporation results in termination; E: Incorporation permits further chain extension; T/E: Predominant product is primer extended by one base, but evidence of some further extension also observed. Conditions: DNA template, 37° C. for 20–40 minutes; for primer extended by at least one base within assay time (grade): TTP replaced entirely by test compound. As to the method:
(§1) DNA polymerase assays were performed using Sequence 1 as primer and Sequence 2 as template. • Sequence 1 5′[Cy3]TAACTCATTAACAGGATC 3′ • Sequence 2 5′AT TCGCGGTATTCTGGTATGAAGCTTTTAGATCCTGTTAATGAGTTA GTA3′
(§2) The template (Sequence 2) was designed such that the base (underlined) immediately adjacent to the 3′ end of the hybridised primer is complementary to the nucleotide test compound. Nucleotide test compounds were compounds (6) (4′-C-(glycylaminomethyl)thymidine triphosphate), (8) (4′-C-(N-trifluoroacetyaminomethyl)thymidine triphosphate) and (9) (4′-C-(aminomethyl)thymidine triphosphate) as described above.
(§3) Primer extension reactions were performed using the above primers in the presence of 40 to 80 μM of nucleotide triphosphates. Positive control reactions contained all four native nucleotide triphosphates. For the other reactions the TTP was replaced with either a 2:1 ratio of […] for the terminator control, or entirely by the test compound The enzymes were used at a final concentration of 0.175 units/μl and a magnesium ion concentration of 2.5 mM in buffers supplied by the manufacturer. The primer and template concentrations were 0.5 pmol/μl and 2 pmol/μl respectively.
(§4) Extension reactions preformed with mesophilic polymerases were carried out by mixing all the components of the reaction except the enzyme and heating to 70° C. for 5 min. After the reactions had cooled to room temperature 0.175 units of the enzyme were added and the reactions heated to 37° C. for 20–40 minutes. The following enzymes were used: T7 DNA polymerase (T7); Sequenase 2™ (Seq); Klenow fragment of DNA polymerase 1 (Klen); phi-29 DNA polymerase (Phi-29); T4 DNA polymerase (T4) (all from AP Biotech) and Bst DNA polymerase (Bst) (Cambio Ltd).
(§5) The reactions were stopped by adding a 0.5 volume aliquot of 80% formamide containing 0.1% (w/v) bromophenol blue and 0.1% (w/v) cresol blue. The reaction products were separated by denaturing gel electrophoresis at a constant power of 45 W on 16% polyacrylamide gels containing 50% urea.
(§6) Gels were scanned for Cy3 fluorescence on a Molecular Dynamics Fluorimager and the data analysed using Molecular Dynamics ImageQuant 5 software.
(§7) The incorporation of a test nucleotide triphosphate results in the appearance on a polyacrylamide gel of a single band corresponding to a single base extension product. If, however, the enzyme adds additional bases then further bands would be observed that corresponded to either the full-length product or positions of other complementary bases in the template.

Another assay relates to Vent™ DNA polymerase. Kind of assay: Thermostable DNA polymerase primer extension, Vent. Further details: key to result of incorporation (termination / further chain extension): T: Incorporation results in termination; E: Incorporation permits further chain extension; T/E: Predominant product is primer extended by one base, but evidence of some further extension also observed. Conditions: DNA template, 45° C. for 20–40 minutes; for primer extended by at least one base within assay time (grade): TTP replaced entirely by test compound. As to the method: as §1, §2, §3
(§8) Extension reactions with thermophilic enzymes were performed by initially denaturing the fully assembled reactions at 70° C. for 5 min. followed by 45° C. for 20–40 minutes. The following enzymes were used: Taq DNA polymerase (Taq); Thermosequenase (TS); Thermosequenase II (TSII); Thermosequenase E (TSE), Tfl DNA polymerase (Tfl); Tth DNA polymerase (Tth), deltaTts DNA polymerase (deltaTts), deltaTts D DNA polymerase (dettaTTSD) (all from APBiotech); Pfu DNA polymerase (Pfu) (Stratagene Ltd); Vent™ DNA polymerase (Vent) (New England Biolabs).
as §5, §6, §7

The next assay deals with a range of polymerases. Kind of assay: DNA polymerase assays (summary). Conditions: for further extension after incorporation: reverse transcriptase conditions; for result of incorporation / substrate for polymerases: summary of polymerase assays. As to the method: as §1, §2, §3, §8, §4
Reverse transcriptase reactions were performed essentially as described above for thermophilic and mesophilic enzymes. The template for these reactions was the RNA equivalent of sequence 2. All the thermophilic enzymes were assayed in Tth reaction buffer (Cambio Ltd, Cambridge UK) containing 2.5 mM Manganese ions. The following enzymes were used: Thermosequenase (TS1); Thermosequenase II (TSII); delta Tts DNA polymerase (deltaTts); delta Tts D DNA polymerase (deltaTtsD) (all from APBiotech); Retrotherm reverse transcriptase (Retroth) (Cambio Ltd); Tth DNA polymerase (Tth) (Cambio Ltd.).
Mesophilic reverse transcriptases (AMV RT; MuLV RT; SAV RT and HIV RT all from APBiotech) were assayed in their respective buffers with a final enzyme concentration of 4 units/μl.
as §5, §6, §7

For “4′-C-(Aminomethyl)thymidine triphosphate [compound (9)]”, on Bst DNA polymerase, the “result of incorporation (termination / further chain extension)” value is listed as “T” and the “primer extended by at least one base within assay time (grade)” value (from here on “primer extended”) was “+ (up to 50% of primer extended by at least one base within assay time)”. For the same compound, in the assay on Vent™ DNA polymerase, the “result of incorporation (termination / further chain extension)” value is recorded as “T” and the “primer extended” value is “+/− (up to 25% of primer extended by at least one base within assay time)”. Further, in the assay on a range of polymerases, the “further extension after incorporation” value is “some extension was observed”, the result of incorporation is recorded as “termination” and the substrate for polymerases entry is “effective substrates”.
Turning to “4′-C-(Glycylaminomethyl)thymidine triphosphate [compound (6)]”, at Bst DNA polymerase, the “result of incorporation (termination / further chain extension)” value is recorded as “T” and the “primer extended” value is on record as “+ (up to 50% of primer extended by at least one base within assay time)”. For the same compound, in the assay on Vent™ DNA polymerase, the “result of incorporation (termination / further chain extension)” value is listed as “T” and the “primer extended” value is “+/− (up to 25% of primer extended by at least one base within assay time)”. Besides, in the assay on a range of polymerases, the “further extension after incorporation” value was “some extension was observed”, the result of incorporation is “termination” and the substrate for polymerases entry is listed as “effective substrates”.
In the case of `Cc1cn([C@H]2C[C@H](O)[C@@](CNC(=O)C(F)(F)F)(COP(=O)(O)OP(=O)(O)OP(=O)(O)O)O2)c(=O)[nH]c1=O` [compound (8), 4′-C-(N-trifluoroacetylaminomethyl)thymidine triphosphate], on Bst DNA polymerase, the “result of incorporation (termination / further chain extension)” value is given as “T” and the “primer extended” value is “+ (up to 50% of primer extended by at least one base within assay time)”. Further, in the assay with Vent™ DNA polymerase, the “result of incorporation (termination / further chain extension)” value was “T” and the “primer extended” value was “+/− (up to 25% of primer extended by at least one base within assay time)”. Further, in the assay on a range of polymerases, the “further extension after incorporation” value is “some extension was observed”, the result of incorporation is listed as “termination” and the substrate for polymerases result is given as “effective substrates”.
